Laboratory results from patent EP2077105A1, “Ophthalmic Micellar Compositions with Enhanced Stability” (Novagali Pharma S.A., priority 2008, dated 2009).

Assay: Zeta potential of emulsion surface
Type: physicochemical
Settings: 0.02% BAK and 0.002% CKC in emulsion
From the text: All the eye drops were supplied by Novagali Pharma (Evry, France) and were sterile with physiological pH and osmolality. The present Applicants chose to compare 0.02% BAK to 0.002% CKC since these two QAC concentrations confer equivalent positive charge to the emulsion surface (zeta potential around 20 mV).

CCCCCCCCCCCCCCCC[N+](C)(C)Cc1ccccc1 [Cetalkonium chloride, cetalkonium chloride]
zeta potential: around 20 mV
